From patent publication US6830310B2, “Detectable markers in cationic polymeric fixers” (Hewlett-Packard Development Company, L.P., priority 2002, dated 2004)

Tests used:
[1] = Color of the fixer solution in the presence of the compound; format: physicochemical
From the text: 3) “Color” refers to the color of the fixer solution in the presence of the compound.

[2] = Solubility of indicator in polymonoguanadine fixer; settings: for Solubility @ 0.1%: 0.1% in 4 wt % polymonoguanadine fixer; for Solubility @ 0.01 %: 0.01% in 4 wt % polymonoguanadine fixer
From the text: Fixer solutions were made by mixing a water based fixer containing a polymonoguanadine cationic polymer with an IR or UV absorber indicator.
2) The solubility is based on the solubility of the compound in a 4 wt % polymonoguanadine fixer.

Molecule | Color [1] | Solubility @ 0.1% [2] | Solubility in polymonoguanadine thermal inkjet fixer ([2]; 750 ppm) | Solubility (general statement) ([2]; in water / fixer) | Solubility @ 0.01 % [2] | Solubility in the fixer vehicle ([2]; fixer vehicle that is mostly water)
CCOc1ccc2c(ccc(/C=C/c3cccc([N+](=O)[O-])c3)[n+]2C)c1.COS(=O)(=O)[O-] [Pinacryptol Yellow] | Yellow | No | – | – | – | –
CN1/C(=C/C=C/C=C/C=C/C2=[N+](C)c3ccccc3C2(C)C)C(C)(C)c2ccccc21.[I-] [tricarbocyanine, 1,1′,3,3,3′,3′-Hexamethylindotricarbocyanine iodide] | – | – | not soluble | only limited solubility | – | –
O=S(=O)([O-])c1cc(Nc2nc(Nc3ccccc3)nc(N(CCO)CCO)n2)ccc1/C=C/c1ccc(Nc2nc(Nc3ccccc3)nc(N(CCO)CCO)n2)cc1S(=O)(=O)[O-].[Na+].[Na+] [FluorescentBrightner28] | Clear | – | – | – | – | –
Variamine Blue | Yellow | Yes | – | – | Yes | –
Cc1ccc2c(c1)sc(-c1ccc(N(C)C)cc1)[n+]2C.[Cl-] [Thioflavin T] | Yellow | No | – | – | Yes | –
CCN=C1C=CC(=C(c2ccc(N(CC)CC)cc2)c2ccc(N(CC)CC)cc2)c2ccccc21.Cl [Victoria Blue BO] | Blue | – | – | – | Yes | –
Cc1cc2nc3[nH]c(=O)[nH]c(=O)c3nc2cc1C [Lumichrome] | Clear | No | – | – | No | –
C(=Cc1ccccc1)c1ccccc1 [Stilbene] | – | – | – | – | – | not soluble
Nc1ccc(C(=O)O)cc1 [4-Aminobenzoic acid (PABA), 4-Aminobenzoic acid] | Clear | Yes | – | – | Yes | –
Cc1ccc2nc(-c3ccc(N=NNc4ccc(-c5nc6ccc(C)c(S(=O)(=O)[O-])c6s5)cc4)cc3)sc2c1S(=O)(=O)[O-].[Na+].[Na+] [Direct Yellow 9] | Yellow | No | – | – | – | –
CN(C)c1ccc(C=Cc2ccccn2)cc1 [2-[4-(Dimethylamino)styryl]pyridine] | Orange | No | – | – | – | –
CN(C)c1ccc2c(C(F)(F)F)cc(=O)oc2c1 [Coumarin 152] | – | No | – | – | No | –
Cc1cc(O)nc2cc(N)ccc12 [Carbostyril 124] | Clear | No | – | – | Yes | –
CC1(C)C(/C=C/C=C/C=C/C=C2\N(CCCCS(=O)(=O)O)c3ccc4ccccc4c3C2(C)C)=[N+](CCCCS(=O)(=O)[O-])c2ccc3ccccc3c21 [Indocyanine Green] | Green | No | – | – | No | –
CCN(CC)c1ccc2c(C)cc(=O)oc2c1 [7-Diethylamino-4-methyl coumarin, 7-diethylamino-4-methyl coumarin] | – | Yes | – | – | Yes | –
CCN(CC)CCc1c(C)c2ccc(O)cc2oc1=O.Cl [3-[2-(diethylamino)ethyl]-7-hydroxy-4-methylcoumarin hydrochloride] | – | – | – | – | Yes | –
CCN(CC)c1ccc2cc(-c3nc4ccccc4[nH]3)c(=O)oc2c1 [Coumarin 7] | Yellow | No | – | – | No | –
Cc1cc(=O)oc2cc(O)c(O)cc12 [4-Methylesculetin] | Clear | No | – | – | No | –
CCN1/C(=C/C=C2\CCC(/C=C/c3sc4ccc(Cl)cc4[n+]3CC)=C2N(c2ccccc2)c2ccccc2)Sc2ccc(Cl)cc21.[O-][Cl+3]([O-])([O-])[O-] [IR140] | Pale Blue | No | – | – | No | –
